# Source: patent US20090209620A1, “Direct Reversal Of The Suppressive Function Of CD4+Regulatory T Cells Via Toll-Like Receptor 8 Signaling” (priority 2005, published 2009)
# In the oligonucleotide strings, read from the 5' end, every base follows the letter of its sugar. An asterisk marks phosphorothioate; unmarked linkages are phosphodiester. Other units and linkages are bracketed, terminal groups are in braces. A string of capitals states the bases alone. d = 2'-deoxy (DNA)
# System: CD4+ Treg cells (Treg102, Treg164)
# Assay: Proliferation assay without DCs: Treg suppression of naive CD4+ T cell proliferation, anti-CD3-coated plates
# Assay type: cell-based, human
# Settings: absence of DCs; for reversal of Treg cell-mediated suppression of naive CD4+ T cell proliferation: anti-CD3-coated plates, oligonucleotides 3 ug/ml in medium
# Excerpt: Establishing Treg cell lines and purifying natural CD4^+ CD25^+ Treg cells CD4^+ Treg clones were established from CD4^+ tumor-infiltrating lymphocytes (TIL102 and TIL164) and maintained in RPMI 1640 medium containing 10% human AB serum and recombinant IL-2 (300 IU/ml) using methods well known in the art (See, e.g., H. Y. Wang et al., Immunity 20, 107-118 (2004)). Treg clones derived from TIL102 or TIL164 cells were pooled and designated Treg102 or Treg164. Naturally occurring CD4^+ CD25^+ Treg cells were obtained by sorting CD4^+ T cell populations from fresh PBMCs after staining with anti-CD4 and anti-CD25 antibodies. To obtain optimal expansion, the OKT3 expansion method was performed using methods well known in the art (See, e.g., H. Y. Wang et al., Immunity 20, 107-118 (2004)). T cell clones were maintained at a low IL-2 concentration (300 IU/ml). Melanoma cell lines and EBV-transformed B-cell lines used in this study were cultured in RPMI 1640 medium containing 10% FCS. Human embryonic kidney (HEK) 293 and Epstein-Barr virus (EBV)-transformed B cell lines were maintained in RPMI 1640 with 10% fetal calf serum (FCS).
# B. Proliferation assay without DCs: 1×10^5 näive CD4 T cells were cultured with regulatory T cells at different ratios (1: 0.2, 1:0.1 and 1:0.05) in anti-CD3 mAb-coated (2 ug/ml) 96-well plates in the presence or absence of the following TLR ligands or cytokines: CpG-A (3 ug/ml), CpG-B (3 ug/ml), LPS (100 ng/ml), TNF.-α (20 ng/ml), IFN-α (100 ng/ml), or IL-6 (100 ng/ml). After 56 h of culture, [3H]thymidine was added at a final concentration of 1 uCi/well, followed by an additional 16 h of culture. The incorporation of [^3H]thymidine was measured with a liquid scintillation counter.
# Näive CD4^+ T cell proliferation experiments were performed similar to those in FIG. 1A, but in the absence of DCs. […] The reversal effect of CpG-A (SEQ ID NO: 1) contrasts with the failure of CpG-B (SEQ ID NO: 2), LPS, TNF-α, IL-6 or IFN-α to block the suppressive activity of CD4^+ Treg cells against naive CD4^+ T cells (FIG. 1B).
# To further define the CpG-A (SEQ ID NO: 1) sequences responsible for the observed reversal effect, CpG-NG (SEQ ID NO: 5) and Poly-G10 (SEQ ID NO: 6), were tested for their ability to reverse the suppressive function of Treg cells. Naive CD4^+ T cells were mixed with CD4^+ Treg cells in anti-CD3 antibody-coated 96-wells with 200 μl of medium containing CpG-NG (SEQ ID NO: 5), CpG-A (SEQ ID NO: 1) or Poly-G10 (SEQ ID NO: 6). The proliferation assay was conducted as described in FIG. 1. […] For the experiments shown in FIG. 2B, naive CD4^+ T cells were mixed with CD4^+ Treg cells in anti-CD3 antibody-coated 96-wells with 200 μl of medium containing Poly-A10 (SEQ ID NO: 7), Poly-T10 (SEQ ID NO: 9) or Poly-C10 (SEQ ID NO: 8), while the Poly-G10 (SEQ ID NO: 6) oligonucleotides served as a positive control.
# A series of oligonucleotides with decreasing numbers of guanosine nucleosides was constructed to determine the minimal number required for the reversal effect. For the experiments in FIG. 2C, CD4^+ T cells were mixed with CD4^+ Treg cells in anti-CD3 antibody-coated 96-wells containing medium with protected phosphorothioate linked guanosine nucleoside containing oligonucleotides of various lengths, while the unprotected five guanosines (SEQ ID NO: 10) served as a control.
Substance,effect on proliferation of naive CD4+ T cells or Treg cells alone,reversal of Treg cell-mediated suppression of naive CD4+ T cell proliferation
G* GGGGACGATCGTCG* G*G*G*G*G [CpG-A],lacked any effect,restored the proliferation of naive CD4^+ T cells to near normal levels
Poly-G10: guanosine oligonucleotide with protected phosphorothioate backbone (DNA dG*dG*dG*dG*dG*dG*dG*dG*dG*dG),–,retained or even enhanced
